How the values were obtained:
[1] = biological target: Mitogen-activated protein kinase kinase kinase kinase 2 (Homo sapiens) (UniProt Q12851); assay: Inhibition of MAP4K2 at 10 uM; details: values are per cent of control
[2] = tested on: Epidermal growth factor receptor (Homo sapiens), P00533 [L861Q]; assay: Inhibition of EGFR L861Q mutant at 10 uM; values are per cent of control
[3] = biological target: Casein kinase I isoform delta (Homo sapiens) (UniProt P48730); assay: Inhibition of CSNK1D at 10 uM; values are per cent of control
[4] = biological target: Serine/threonine-protein kinase Chk1 (Homo sapiens) (UniProt O14757); assay: Inhibition of CHEK1 at 10 uM; values are per cent of control
[5] = biological target: Cyclin-dependent kinase 13 (Homo sapiens) (UniProt Q14004); assay: Inhibition of CDC2L5 at 10 uM; values are per cent of control
[6] = biological target: Tyrosine-protein kinase Yes (Homo sapiens) (UniProt P07947); assay: Inhibition of YES at 10 uM; details: values are per cent of control
[7] = biological target: Serine/threonine-protein kinase D3 (Homo sapiens) (UniProt O94806); assay: Inhibition of PRKD3 at 10 uM
[8] = biological target: Ephrin type-A receptor 3 (Homo sapiens) (UniProt P29320); assay: Inhibition of EPHA3 at 10 uM; details: values are per cent of control
[9] = biological target: Serine/threonine-protein kinase RIO1 (Homo sapiens) (UniProt Q9BRS2); assay: Inhibition of RIOK1 at 10 uM
[10] = biological target: Casein kinase II subunit alpha' (Homo sapiens) (UniProt P19784); assay: Inhibition of CSNK2A2 at 10 uM; details: values are per cent of control
[11] = tested on: Receptor-type tyrosine-protein kinase FLT3 (Homo sapiens), P36888 [K663Q]; assay: Inhibition of FLT3 K663Q mutant at 10 uM; details: values are per cent of control
[12] = biological target: Serine/threonine-protein kinase 10 (Homo sapiens) (UniProt O94804); assay: Inhibition of LOK at 10 uM; values are per cent of control
[13] = biological target: Receptor-interacting serine/threonine-protein kinase 2 (Homo sapiens) (UniProt O43353); assay: Inhibition of RIPK2 at 10 uM; details: values are per cent of control
[14] = biological target: CDK4/Cyclin D3 (Homo sapiens) (UniProt P11802+P30281); assay: Inhibition of CDK4/cyclin D3 at 10 uM; values are per cent of control
[15] = biological target: Tyrosine-protein kinase receptor TYRO3 (Homo sapiens) (UniProt Q06418); assay: Inhibition of TYRO3 at 10 uM; details: values are per cent of control
[16] = biological target: 5'-AMP-activated protein kinase catalytic subunit alpha-2 (Homo sapiens) (UniProt P54646); assay: Inhibition of AMPK-alpha2 at 10 uM; details: values are per cent of control
[17] = biological target: Calcium/calmodulin-dependent protein kinase type II subunit delta (Homo sapiens) (UniProt Q13557); assay: Inhibition of CAMK2D at 10 uM; details: values are per cent of control
[18] = biological target: Protein kinase C epsilon type (Homo sapiens) (UniProt Q02156); assay: Inhibition of PRKCE at 10 uM
[19] = Inhibition of FLT3 ITD mutant at 10 uM; details: values are per cent of control
[20] = biological target: Serine/threonine-protein kinase Nek11 (Homo sapiens) (UniProt Q8NG66); assay: Inhibition of NEK11 at 10 uM
[21] = biological target: Serine/threonine-protein kinase 32A (Homo sapiens) (UniProt Q8WU08); assay: Inhibition of YANK1 at 10 uM; details: values are per cent of control
[22] = biological target: Tyrosine-protein kinase SYK (Homo sapiens) (UniProt P43405); assay: Inhibition of SYK at 10 uM
[23] = tested on: Epidermal growth factor receptor (Homo sapiens), P00533 [UNDEFINED MUTATION]; assay: Inhibition of EGFR L747-S752del, P753S mutant at 10 uM; values are per cent of control
Sequence of Epidermal growth factor receptor (Homo sapiens), P00533 [UNDEFINED MUTATION] (P00533 whole entry, looked up, stated change not applied): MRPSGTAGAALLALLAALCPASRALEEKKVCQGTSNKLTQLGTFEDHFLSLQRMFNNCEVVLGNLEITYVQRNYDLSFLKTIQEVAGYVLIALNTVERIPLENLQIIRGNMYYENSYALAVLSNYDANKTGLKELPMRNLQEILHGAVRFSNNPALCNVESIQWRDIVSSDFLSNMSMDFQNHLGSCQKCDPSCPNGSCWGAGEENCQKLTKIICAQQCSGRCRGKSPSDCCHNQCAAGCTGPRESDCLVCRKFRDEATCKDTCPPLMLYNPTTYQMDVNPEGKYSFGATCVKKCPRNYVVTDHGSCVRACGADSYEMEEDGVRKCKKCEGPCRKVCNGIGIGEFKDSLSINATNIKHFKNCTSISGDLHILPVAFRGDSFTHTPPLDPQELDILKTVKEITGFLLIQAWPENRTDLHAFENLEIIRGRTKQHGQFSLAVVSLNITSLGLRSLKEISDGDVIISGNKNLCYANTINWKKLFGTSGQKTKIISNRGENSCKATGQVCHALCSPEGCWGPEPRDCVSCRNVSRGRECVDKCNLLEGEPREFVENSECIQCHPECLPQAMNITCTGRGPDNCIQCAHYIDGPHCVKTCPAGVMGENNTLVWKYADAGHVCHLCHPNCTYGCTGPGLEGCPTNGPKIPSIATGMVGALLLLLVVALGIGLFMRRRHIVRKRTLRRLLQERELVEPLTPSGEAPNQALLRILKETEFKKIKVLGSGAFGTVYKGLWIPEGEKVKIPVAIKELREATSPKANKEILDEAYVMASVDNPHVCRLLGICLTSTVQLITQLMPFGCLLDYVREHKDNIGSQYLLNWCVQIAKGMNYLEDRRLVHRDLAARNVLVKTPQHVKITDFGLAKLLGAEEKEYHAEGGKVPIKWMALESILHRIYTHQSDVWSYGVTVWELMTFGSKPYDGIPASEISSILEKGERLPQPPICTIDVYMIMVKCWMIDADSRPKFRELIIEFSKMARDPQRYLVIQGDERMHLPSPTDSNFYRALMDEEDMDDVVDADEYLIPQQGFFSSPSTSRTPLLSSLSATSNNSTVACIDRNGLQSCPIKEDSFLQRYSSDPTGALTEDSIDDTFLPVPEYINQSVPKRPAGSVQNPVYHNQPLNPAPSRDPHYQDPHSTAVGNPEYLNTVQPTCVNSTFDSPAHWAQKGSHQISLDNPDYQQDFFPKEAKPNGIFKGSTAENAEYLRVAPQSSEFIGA

Sequence of Casein kinase II subunit alpha' (Homo sapiens) (P19784 whole entry, looked up): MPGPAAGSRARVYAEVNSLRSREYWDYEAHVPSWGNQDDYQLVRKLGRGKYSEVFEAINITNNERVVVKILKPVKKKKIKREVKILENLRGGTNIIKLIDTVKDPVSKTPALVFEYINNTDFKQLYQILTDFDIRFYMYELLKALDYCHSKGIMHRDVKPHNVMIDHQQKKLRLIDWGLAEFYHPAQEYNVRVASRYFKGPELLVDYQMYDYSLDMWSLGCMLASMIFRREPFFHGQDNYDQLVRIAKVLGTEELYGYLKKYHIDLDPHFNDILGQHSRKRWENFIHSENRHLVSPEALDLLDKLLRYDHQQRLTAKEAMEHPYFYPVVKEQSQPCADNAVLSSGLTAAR
Sequence of Receptor-interacting serine/threonine-protein kinase 2 (Homo sapiens) (O43353 whole entry): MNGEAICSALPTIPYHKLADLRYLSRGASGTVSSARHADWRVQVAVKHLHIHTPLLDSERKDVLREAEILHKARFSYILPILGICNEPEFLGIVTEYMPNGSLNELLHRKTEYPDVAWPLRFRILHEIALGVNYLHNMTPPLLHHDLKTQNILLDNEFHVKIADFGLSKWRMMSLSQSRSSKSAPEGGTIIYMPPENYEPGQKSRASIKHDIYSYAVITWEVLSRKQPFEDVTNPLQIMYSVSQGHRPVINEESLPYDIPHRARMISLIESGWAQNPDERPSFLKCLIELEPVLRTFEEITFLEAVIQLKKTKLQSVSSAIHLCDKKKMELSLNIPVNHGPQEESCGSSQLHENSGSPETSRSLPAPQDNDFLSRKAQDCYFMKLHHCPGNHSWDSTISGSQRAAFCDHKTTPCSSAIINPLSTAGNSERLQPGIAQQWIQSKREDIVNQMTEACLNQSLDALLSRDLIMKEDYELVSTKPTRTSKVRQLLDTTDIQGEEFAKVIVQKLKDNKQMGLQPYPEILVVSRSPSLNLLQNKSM
Sequence of Serine/threonine-protein kinase 10 (Homo sapiens) (O94804 whole entry, looked up): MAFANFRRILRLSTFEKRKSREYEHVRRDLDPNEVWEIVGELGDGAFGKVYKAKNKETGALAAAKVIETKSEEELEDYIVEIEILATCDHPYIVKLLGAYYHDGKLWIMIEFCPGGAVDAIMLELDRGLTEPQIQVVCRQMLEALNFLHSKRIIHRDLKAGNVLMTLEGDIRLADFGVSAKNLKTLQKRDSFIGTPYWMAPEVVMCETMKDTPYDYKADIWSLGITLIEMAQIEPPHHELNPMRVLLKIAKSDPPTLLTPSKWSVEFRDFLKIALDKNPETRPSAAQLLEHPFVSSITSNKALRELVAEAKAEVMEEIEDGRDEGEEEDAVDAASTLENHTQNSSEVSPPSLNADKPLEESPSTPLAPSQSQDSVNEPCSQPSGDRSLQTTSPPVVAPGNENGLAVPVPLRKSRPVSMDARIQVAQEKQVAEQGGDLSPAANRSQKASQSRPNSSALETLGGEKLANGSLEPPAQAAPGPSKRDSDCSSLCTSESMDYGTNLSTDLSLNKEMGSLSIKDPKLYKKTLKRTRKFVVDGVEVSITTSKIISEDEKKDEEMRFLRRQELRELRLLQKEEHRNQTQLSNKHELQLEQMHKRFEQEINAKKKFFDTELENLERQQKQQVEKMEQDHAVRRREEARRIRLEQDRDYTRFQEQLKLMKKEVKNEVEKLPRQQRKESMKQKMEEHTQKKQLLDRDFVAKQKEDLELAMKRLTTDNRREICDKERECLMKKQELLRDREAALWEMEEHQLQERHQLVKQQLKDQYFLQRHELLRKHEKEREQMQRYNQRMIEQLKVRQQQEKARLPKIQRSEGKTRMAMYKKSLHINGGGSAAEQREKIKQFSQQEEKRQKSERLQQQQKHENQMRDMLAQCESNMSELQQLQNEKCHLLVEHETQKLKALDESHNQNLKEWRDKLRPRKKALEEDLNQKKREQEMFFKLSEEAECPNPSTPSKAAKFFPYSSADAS
Sequence of Epidermal growth factor receptor (Homo sapiens), P00533 [L861Q] (P00533 whole entry L861Q, canonical isoform): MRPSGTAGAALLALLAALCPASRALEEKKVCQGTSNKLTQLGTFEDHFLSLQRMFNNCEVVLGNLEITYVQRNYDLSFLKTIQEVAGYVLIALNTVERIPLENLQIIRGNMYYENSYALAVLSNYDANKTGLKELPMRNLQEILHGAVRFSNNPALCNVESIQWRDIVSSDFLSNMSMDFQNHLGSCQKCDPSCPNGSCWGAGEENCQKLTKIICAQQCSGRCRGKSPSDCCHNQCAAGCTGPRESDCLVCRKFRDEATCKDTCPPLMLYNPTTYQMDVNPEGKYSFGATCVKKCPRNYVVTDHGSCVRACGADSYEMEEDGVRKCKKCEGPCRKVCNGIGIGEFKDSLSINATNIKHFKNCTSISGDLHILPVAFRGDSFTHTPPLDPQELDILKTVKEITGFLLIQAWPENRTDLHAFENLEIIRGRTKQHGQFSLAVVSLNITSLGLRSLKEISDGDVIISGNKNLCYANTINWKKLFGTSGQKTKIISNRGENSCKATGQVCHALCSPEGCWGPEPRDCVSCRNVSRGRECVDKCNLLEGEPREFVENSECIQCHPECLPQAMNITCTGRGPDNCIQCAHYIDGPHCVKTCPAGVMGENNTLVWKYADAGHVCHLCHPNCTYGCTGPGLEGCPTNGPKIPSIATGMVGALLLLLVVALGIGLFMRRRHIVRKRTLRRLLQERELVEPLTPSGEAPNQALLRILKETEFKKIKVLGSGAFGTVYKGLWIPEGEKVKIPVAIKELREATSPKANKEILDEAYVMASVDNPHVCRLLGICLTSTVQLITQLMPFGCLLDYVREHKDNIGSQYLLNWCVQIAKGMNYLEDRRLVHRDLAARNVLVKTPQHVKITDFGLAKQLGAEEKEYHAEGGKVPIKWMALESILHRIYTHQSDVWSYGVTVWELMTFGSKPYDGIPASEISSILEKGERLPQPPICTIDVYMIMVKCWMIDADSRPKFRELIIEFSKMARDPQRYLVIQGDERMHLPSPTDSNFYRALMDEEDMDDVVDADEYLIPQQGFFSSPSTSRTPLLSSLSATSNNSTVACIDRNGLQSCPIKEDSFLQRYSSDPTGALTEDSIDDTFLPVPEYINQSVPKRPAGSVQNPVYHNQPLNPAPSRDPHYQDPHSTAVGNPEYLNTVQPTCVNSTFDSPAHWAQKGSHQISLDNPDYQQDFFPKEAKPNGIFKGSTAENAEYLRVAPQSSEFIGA
Sequence of Casein kinase I isoform delta (Homo sapiens) (P48730 whole entry, looked up, canonical isoform): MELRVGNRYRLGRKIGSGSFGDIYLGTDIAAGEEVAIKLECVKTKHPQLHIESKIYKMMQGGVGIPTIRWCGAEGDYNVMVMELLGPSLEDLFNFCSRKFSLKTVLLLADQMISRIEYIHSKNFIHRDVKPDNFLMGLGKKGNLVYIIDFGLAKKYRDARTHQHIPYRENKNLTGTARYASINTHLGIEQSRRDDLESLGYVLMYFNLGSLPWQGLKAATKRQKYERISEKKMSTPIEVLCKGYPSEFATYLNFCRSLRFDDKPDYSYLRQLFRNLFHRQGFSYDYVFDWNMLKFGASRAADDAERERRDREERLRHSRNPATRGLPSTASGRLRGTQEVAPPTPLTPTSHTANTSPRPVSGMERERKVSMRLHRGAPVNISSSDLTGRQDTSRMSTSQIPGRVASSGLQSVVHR

| SMILES | residual binding, % of control [1] [%] | level, % of control [2] [%] | level, % of control [3] [%] | level, % of control [4] [%] | level, % of control [5] [%] | residual binding, % of control [6] [%] | inhibition [7] [%] | residual binding, % of control [8] [%] | inhibition [9] [%] | residual binding, % of control [10] [%] | residual binding, % of control [11] [%] | level, % of control [12] [%] | residual binding, % of control [13] [%] | level, % of control [14] [%] | residual binding, % of control [15] [%] | residual binding, % of control [16] [%] | residual binding, % of control [17] [%] | inhibition [18] [%] | residual binding, % of control [19] [%] | inhibition [20] [%] | also measured |
| --- | --- | --- | --- | --- | --- | --- | --- | --- | --- | --- | --- | --- | --- | --- | --- | --- | --- | --- | --- | --- | --- |
| CCN1CCN(Cc2ccc(NC(=O)c3ccc(C)c(C#Cc4cnc5[nH]ccc5c4)c3)cc2C(F)(F)F)CC1 | 0 | 0 | 22 | 88 | 13 | 0.25 | 6.4 | 0.75 | 53 | 78 | 0 | 0 | 0.3 | 65 | 38 | 7.2 | 100 | 78 | 0.15 | 18 | residual binding, % of control [21]: 98%; inhibition [22]: 1%; level, % of control [23]: 0.8% |
| CCN1CCN(Cc2ccc(NC(=O)c3ccc(C)c(C#Cc4cccnc4)c3)cc2C(F)(F)F)CC1 | 0 | 0.2 | 29 | 80 | 6.5 | 0.1 | 22 | 0.85 | 90 | 94 | 0 | 0 | 0.45 | 54 | 100 | 18 | 100 | 54 | 0.1 | 9.1 | residual binding, % of control [21]: 81%; inhibition [22]: 13%; level, % of control [23]: 0.9% |
